{
  "source": "ChEMBL document CHEMBL1123136",
  "about": "“Difluorostatine- and difluorostatone-containing peptides as potent and specific renin inhibitors” (J Med Chem, 1985)",
  "key": {"Renin": {"target": "T1, Renin (Homo sapiens, UniProt P00797)", "T1 sequence (P00797 whole entry)": "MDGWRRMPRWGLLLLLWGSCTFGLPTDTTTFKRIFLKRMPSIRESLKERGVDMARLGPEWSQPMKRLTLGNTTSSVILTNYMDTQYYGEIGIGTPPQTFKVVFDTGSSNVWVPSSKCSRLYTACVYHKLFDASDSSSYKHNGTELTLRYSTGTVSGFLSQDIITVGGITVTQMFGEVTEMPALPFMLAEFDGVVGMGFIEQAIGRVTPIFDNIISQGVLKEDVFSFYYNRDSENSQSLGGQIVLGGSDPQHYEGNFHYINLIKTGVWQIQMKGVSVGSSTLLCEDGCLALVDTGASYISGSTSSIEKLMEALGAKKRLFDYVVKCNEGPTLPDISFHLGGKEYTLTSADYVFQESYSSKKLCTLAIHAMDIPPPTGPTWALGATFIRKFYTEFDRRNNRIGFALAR", "test": "Plasma renin inhibitory activity was evaluated in lyophilized human plasma with 0.1%EDTA", "assay_type": "cell-free"}, "Pepsin A": {"target": "Pepsin A (Sus scrofa, UniProt P00791)", "sequence (P00791 whole entry)": "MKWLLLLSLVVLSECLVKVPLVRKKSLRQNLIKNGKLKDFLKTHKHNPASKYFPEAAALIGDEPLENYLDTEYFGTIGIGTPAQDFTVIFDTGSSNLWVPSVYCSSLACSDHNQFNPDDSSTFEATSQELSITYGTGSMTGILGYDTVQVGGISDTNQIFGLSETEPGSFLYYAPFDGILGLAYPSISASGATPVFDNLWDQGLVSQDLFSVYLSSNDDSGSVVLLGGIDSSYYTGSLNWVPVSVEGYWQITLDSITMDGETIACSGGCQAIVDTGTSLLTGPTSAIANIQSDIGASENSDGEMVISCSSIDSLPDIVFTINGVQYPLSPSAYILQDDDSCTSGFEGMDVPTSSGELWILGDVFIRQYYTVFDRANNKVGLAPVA", "test": "Inhibitory activity was evaluated against pepsin using porcine pepsin (sigma), porcine hemoglobin (sigma) and 0.02 M KCl-HCl buffer (pH 2)"}, "[1]": {"target": "T2, Angiotensin-converting enzyme (Oryctolagus cuniculus, UniProt P12822)", "T2 sequence (P12822 whole entry)": "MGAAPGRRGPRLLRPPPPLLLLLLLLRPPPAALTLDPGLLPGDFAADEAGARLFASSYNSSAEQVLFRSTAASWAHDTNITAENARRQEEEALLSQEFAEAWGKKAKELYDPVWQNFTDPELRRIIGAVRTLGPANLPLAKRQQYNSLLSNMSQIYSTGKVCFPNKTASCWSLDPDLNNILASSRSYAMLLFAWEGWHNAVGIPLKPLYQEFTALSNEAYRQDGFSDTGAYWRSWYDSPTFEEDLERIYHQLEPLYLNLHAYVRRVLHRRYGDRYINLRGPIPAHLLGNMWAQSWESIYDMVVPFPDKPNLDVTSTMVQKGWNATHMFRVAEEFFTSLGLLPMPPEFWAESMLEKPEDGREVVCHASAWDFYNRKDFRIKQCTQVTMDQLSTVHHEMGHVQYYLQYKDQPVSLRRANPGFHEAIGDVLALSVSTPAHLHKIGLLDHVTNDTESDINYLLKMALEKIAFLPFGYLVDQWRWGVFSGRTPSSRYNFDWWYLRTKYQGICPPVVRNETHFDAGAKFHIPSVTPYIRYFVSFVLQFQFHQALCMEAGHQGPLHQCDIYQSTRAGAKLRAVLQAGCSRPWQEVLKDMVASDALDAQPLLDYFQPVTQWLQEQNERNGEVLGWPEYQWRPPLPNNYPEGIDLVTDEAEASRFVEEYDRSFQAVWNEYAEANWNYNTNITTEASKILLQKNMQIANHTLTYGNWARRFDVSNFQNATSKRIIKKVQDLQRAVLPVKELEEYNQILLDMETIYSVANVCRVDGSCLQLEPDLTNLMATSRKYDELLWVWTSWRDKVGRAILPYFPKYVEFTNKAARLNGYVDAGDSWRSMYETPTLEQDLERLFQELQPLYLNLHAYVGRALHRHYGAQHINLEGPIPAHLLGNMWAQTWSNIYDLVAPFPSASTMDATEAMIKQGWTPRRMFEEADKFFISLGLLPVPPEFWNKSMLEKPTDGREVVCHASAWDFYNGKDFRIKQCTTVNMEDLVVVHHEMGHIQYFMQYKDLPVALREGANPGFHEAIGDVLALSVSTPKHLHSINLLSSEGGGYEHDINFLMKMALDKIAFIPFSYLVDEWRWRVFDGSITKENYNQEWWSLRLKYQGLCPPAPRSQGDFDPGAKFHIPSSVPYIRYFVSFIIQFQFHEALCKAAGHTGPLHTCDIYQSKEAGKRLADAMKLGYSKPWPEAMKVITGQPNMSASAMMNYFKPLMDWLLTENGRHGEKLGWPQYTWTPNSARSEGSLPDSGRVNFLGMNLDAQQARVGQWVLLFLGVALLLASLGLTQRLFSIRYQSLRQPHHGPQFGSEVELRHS", "test": "Inhibitory activity was evaluated against Angiotensin I converting enzyme activity in rabbit"}},
  "note": "Non-standard residues stand in square brackets, D forms with d. Residues, ends and D or L forms follow the SMILES beside them. *: point of attachment. Sta = CC(C)C[C@H](N)[C@@H](O)CC(=O)O; NHCH2(2-pyridyl) = c1ccc(CN*)nc1; Boc = CC(C)(C)OC(=O)*",
  "data": [
    {"compound": "CC[C@H](C)[C@H](NC(=O)C(F)(F)C(=O)[C@H](CC(C)C)NC(=O)[C@H](Cc1c[nH]cn1)NC(=O)[C@H](Cc1ccccc1)NC(=O)OC(C)(C)C)C(=O)NCc1ccccn1", "values": [
      {"measurement": "IC50", "setting": "Renin", "value": 0.52, "unit": "nM"}
    ]},
    {"compound": "CC[C@H](C)[C@H](NC(=O)CC(=O)[C@H](CC(C)C)NC(=O)[C@H](Cc1c[nH]cn1)NC(=O)[C@H](Cc1ccccc1)NC(=O)OC(C)(C)C)C(=O)NCc1ccccn1", "values": [
      {"measurement": "IC50", "setting": "Renin", "value": 34, "unit": "nM"}
    ]},
    {"compound": "CC[C@H](C)[C@H](NC(=O)C(F)(F)[C@H](O)[C@H](CC(C)C)NC(=O)[C@H](Cc1c[nH]cn1)NC(=O)[C@H](Cc1ccccc1)NC(=O)OC(C)(C)C)C(=O)NCc1ccccn1", "values": [
      {"measurement": "IC50", "setting": "Renin", "value": 12, "unit": "nM"}
    ]},
    {"compound": "CC[C@H](C)[C@H](NC(=O)C(F)(F)[C@@H](O)[C@H](CC(C)C)NC(=O)[C@H](Cc1c[nH]cn1)NC(=O)[C@H](Cc1ccccc1)NC(=O)OC(C)(C)C)C(=O)NCc1ccccn1", "values": [
      {"measurement": "IC50", "setting": "Renin", "value": 730, "unit": "nM"}
    ]},
    {"compound": "CC[C@H](C)[C@H](NC(=O)C[C@H](O)[C@H](CC(C)C)NC(=O)[C@H](Cc1c[nH]cn1)NC(=O)[C@H](Cc1ccccc1)NC(=O)OC(C)(C)C)C(=O)NCc1ccccn1", "note": "(Boc-FH[Sta]I-{NHCH2(2-pyridyl)})", "values": [
      {"measurement": "IC50", "setting": "Renin", "value": 1.7, "unit": "nM"}
    ]},
    {"compound": "CC(C)CC(=O)N[C@H](C(=O)N[C@H](C(=O)N[C@@H](CC(C)C)[C@@H](O)CC(=O)N[C@@H](C)C(=O)N[C@@H](CC(C)C)[C@@H](O)CC(=O)O)C(C)C)C(C)C", "note": "[PEPSTATIN]", "values": [
      {"measurement": "IC50", "setting": "Pepsin A", "value": 10, "unit": "nM"}
    ]},
    {"compound": "H-PHPFHFFVYK-OH [RIP]", "values": [
      {"measurement": "IC50", "setting": "[1]", "value": 12000, "unit": "nM"}
    ]}
  ]
}
